The values below are quoted from earlier work in patent publication US7872044B2, “Inhibitors of chymase” (Janssen Pharmaceutica NV, priority 2006, dated 2011).

Structures are written as SMILES.

The test system of this series is angiotensin II activity in human vascular extracts. As to conditions: background statement.

Consider `NCCCC[C@H](N[C@@H](CCc1ccccc1)C(=O)O)C(=O)N1CCC[C@H]1C(=O)O` [lisinopril], for which the “angiotensin II activity inhibited” value is given as “about 8%”.
